Measurements as given in patent US20150299188A1, “HETEROCYCLIC COMPOUND” (priority 2012, published 2015).

Test system: FLAP (5-lipoxygenase activating protein)
Assay: In vitro binding test: displacement of [3H]-7-chloro-3-(5-((3-fluoropyridin-2-yl)methoxy)-2-methylphenyl)-3,4-dihydroquinazolin-2(1H)-one from Sf9 microsome fractions
Design: species or system human and mouse
Settings: Sf9 microsome fractions expressing FLAP; 100% = radioligand binding with 10 μM sodium 3-(3-(tert-butylsulfanyl)-1-(4-chlorobenzyl)-5-isopropyl-1H-indol-2-yl)-2,2-dimethylpropanoate, 0% = DMSO; test compound concentration not given
In short: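 Sf9 microsomes expressing human or mouse FLAP (2 μg/mL) preincubated with compound 10 min at room temperature, then 120 nM tritiated quinazolinone ligand added for 60 min; buffer 100 mM Tris-HCl pH 7.5 with NaCl, EDTA, DTT, glycerol, Tween20. Bound ligand filtered and counted by scintillation; 10 μM indole propanoate defines 100% inhibition, DMSO 0%.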

`O=C1Nc2cc(-c3nnco3)nc(C3CC3)c2CN1c1cc2c(cc1Cl)CCC(c1ncccc1F)O2` (stereo not drawn) [Example 124, 3-(6-chloro-2-(3-fluoropyridin-2-yl)-3,4-dihydro-2H-chromen-7-yl)-5-cyclopropyl-7-(1,3,4-oxadiazol-2-yl)-3,4-dihydropyrido[4,3-d]pyrimidin-2(1H)-one] was tested, and the “inhibitory rate (%)” value was 104%.
With `CC(C)(O)CNC(=O)c1cc2c(c(C3CC3)n1)CN(c1cc3c(cc1Cl)CCC(c1ncccc1F)O3)C(=O)N2` (stereo not drawn) [Example 114, 3-(6-chloro-2-(3-fluoropyridin-2-yl)-3,4-dihydro-2H-chromen-7-yl)-5-cyclopropyl-N-(2-hydroxy-2-methylpropyl)-2-oxo-1,2,3,4-tetrahydropyrido[4,3-d]pyrimidine-7-carboxamide] the “inhibitory rate (%)” value was 106%.
`Cc1ccc(OCc2ncccc2F)cc1-n1c(=O)[nH]c2cc(NS(=O)(=O)C3CC3)ccc2c1=O` [Example 362, N-(3-(5-((3-fluoropyridin-2-yl)methoxy)-2-methylphenyl)-2,4-dioxo-1,2,3,4-tetrahydroquinazolin-7-yl)cyclopropanesulfonamide] was tested, and the “inhibitory rate (%)” value was 110%.
For `Cc1ccc(OCc2cccs2)cc1N1Cc2ccccc2NC1=O` [Example 175, 3-(2-methyl-5-(2-thienylmethoxyl)phenyl)-3,4-dihydroquinazolin-2(1H)-one], the “inhibitory rate (%)” value was 51%.
`O=C1Nc2ccnc(C(F)(F)F)c2CN1c1cc2c(cc1F)CCC(c1ncccc1F)O2` (stereo not drawn) [Example 68, 3-(6-fluoro-2-(3-fluoropyridin-2-yl)-3,4-dihydro-2H-chromen-7-yl)-5-(trifluoromethyl)-3,4-dihydropyrido[4,3-d]pyrimidin-2(1H)-one] was tested, and the “inhibitory rate (%)” value was 113%.
For `Cc1ccc(OCc2ncccc2F)cc1N1Cc2nn(CC(F)(F)F)cc2NC1=O` [Example 263, 6-(5-((3-fluoropyridin-2-yl)methoxy)-2-methylphenyl)-2-(2,2,2-trifluoroethyl)-2,4,6,7-tetrahydro-5H-pyrazolo[4,3-d]pyrimidin-5-one], the “inhibitory rate (%)” value was 97%.
For `O=C1Nc2ccccc2CN1c1cc(OCc2ncccc2F)ccc1CN1CCOCC1` [Example 313, 3-(5-((3-fluoropyridin-2-yl)methoxy)-2-(morpholin-4-ylmethyl)phenyl)-3,4-dihydroquinazolin-2(1H)-one], the “inhibitory rate (%)” value was 64%.
`COc1ncc(C(F)(F)F)c2c1NC(=O)N(c1cc3c(cc1Cl)CCC(c1ncccc1F)O3)C2` (stereo not drawn) [Example 108, 3-(6-chloro-2-(3-fluoropyridin-2-yl)-3,4-dihydro-2H-chromen-7-yl)-8-methoxy-5-(trifluoromethyl)-3,4-dihydropyrido[3,4-d]pyrimidin-2(1H)-one] was tested, and the “inhibitory rate (%)” value was 104%.
With `Cc1cc2c(cc1N1Cc3c(Cl)ncnc3NC1=O)OC(c1ncccc1F)CC2` (stereo not drawn) [Example 37, 5-chloro-3-(2-(3-fluoropyridin-2-yl)-6-methyl-3,4-dihydro-2H-chromen-7-yl)-3,4-dihydropyrimido[4,5-d]pyrimidin-2(1H)-one] the “inhibitory rate (%)” value was 107%.
`O=C(O)CCc1ccc(OCc2ncccc2F)cc1N1Cc2ccccc2NC1=O` [Example 229, 3-(4-((3-fluoropyridin-2-yl)methoxy)-2-(2-oxo-1,4-dihydroquinazolin-3(2H)-yl)phenyl)propanoic acid] was tested, and the “inhibitory rate (%)” value was 76%.
With `CCc1cc2c(c(C3CC3)n1)CN(c1cc3c(cc1C)CCC(c1ncccc1F)O3)C(=O)N2` (stereo not drawn) [Example 96, 5-cyclopropyl-7-ethyl-3-(2-(3-fluoropyridin-2-yl)-6-methyl-3,4-dihydro-2H-chromen-7-yl)-3,4-dihydropyrido[4,3-d]pyrimidin-2(1H)-one] the “inhibitory rate (%)” value was 84%.
For `Cc1ccc(OCc2c(F)cccc2F)cc1N1Cc2nn(C)cc2NC1=O` [Example 236, 6-(5-((2,6-difluorobenzyl)oxy)-2-methylphenyl)-2-methyl-2,4,6,7-tetrahydro-5H-pyrazolo[4,3-d]pyrimidin-5-one], the “inhibitory rate (%)” value was 65%.
For `Cc1ccc(OCc2ncccc2F)cc1N1Cc2c(Br)cccc2NC1=O` [Example 282, 5-bromo-3-(5-((3-fluoropyridin-2-yl)methoxy)-2-methylphenyl)-3,4-dihydroquinazolin-2(1H)-one], the “inhibitory rate (%)” value was 98%.
`CCCN1CCN(Cc2ccc(OCc3ncccc3F)cc2N2Cc3ccccc3NC2=O)CC1` [Example 314, 3-(5-((3-fluoropyridin-2-yl)methoxy)-2-((4-propylpiperazin-1-yl)methyl)phenyl)-3,4-dihydroquinazolin-2(1H)-one] was tested, and the “inhibitory rate (%)” value was 58%.
In the case of `Cc1ccc(OCc2ncccc2F)cc1-n1c(=O)[nH]c2cccc(C(F)(F)F)c2c1=O` [Example 370, 3-(5-((3-fluoropyridin-2-yl)methoxy)-2-methylphenyl)-5-(trifluoromethyl)quinazoline-2,4(1H,3H)-dione], the “inhibitory rate (%)” value is reported as 97%.
In the case of `Cc1cc2c(cc1N1Cc3c(cc(N4CCCC4=O)nc3C3CC3)NC1=O)OC(c1ncccc1F)CC2` (stereo not drawn) [Example 144, 5-cyclopropyl-3-(2-(3-fluoropyridin-2-yl)-6-methyl-3,4-dihydro-2H-chromen-7-yl)-7-(2-oxopyrrolidin-1-yl)-3,4-dihydropyrido[4,3-d]pyrimidin-2(1H)-one], the “inhibitory rate (%)” value is reported as 92%.
In the case of `CCCN(C)C(=O)c1ccc2c(c1)NC(=O)N(c1cc(OCc3ncccc3F)ccc1C)C2` [Example 266, 3-(5-((3-fluoropyridin-2-yl)methoxy)-2-methylphenyl)-N-methyl-2-oxo-N-propyl-1,2,3,4-tetrahydroquinazoline-7-carboxamide], the “inhibitory rate (%)” value is reported as 105%.
With `Cc1ccc(OCc2ncccc2F)cc1-n1c(=O)[nH]c2cc(C(=O)NC3CC3)ccc2c1=O` [Example 363, N-cyclopropyl-3-(5-((3-fluoropyridin-2-yl)methoxy)-2-methylphenyl)-2,4-dioxo-1,2,3,4-tetrahydroquinazoline-7-carboxamide] the “inhibitory rate (%)” value was 97%.
For `O=c1[nH]c2ccccc2c(=O)n1-c1cccc(OCc2ncccc2F)c1` [Example 346, 3-(3-((3-fluoropyridin-2-yl)methoxy)phenyl)quinazoline-2,4(1H,3H)-dione], the “inhibitory rate (%)” value was 96%.
In the case of `O=C1Nc2cc(CO)ccc2CN1c1cc(OCc2c(F)cccc2F)ccc1C(F)(F)F` [Example 239, 3-(5-((2,6-difluorobenzyl)oxy)-2-(trifluoromethyl)phenyl)-7-(hydroxymethyl)-3,4-dihydroquinazolin-2(1H)-one], the “inhibitory rate (%)” value is reported as 86%.
In the case of `O=C1Nc2ccccc2CN1c1cc(OCc2ncccc2F)ccc1CN1CCCC1` [Example 306, 3-(5-((3-fluoropyridin-2-yl)methoxy)-2-(pyrrolidin-1-ylmethyl)phenyl)-3,4-dihydroquinazolin-2(1H)-one], the “inhibitory rate (%)” value is reported as 74%.
`O=C1Nc2cc(CO)ccc2CN1c1cc(OCc2c(F)cccc2F)ccc1CC1CCCCC1` [Example 290, 3-(2-(cyclohexylmethyl)-5-((2,6-difluorobenzyl)oxy)phenyl)-7-(hydroxymethyl)-3,4-dihydroquinazolin-2(1H)-one] was tested, and the “inhibitory rate (%)” value was 97%.
In the case of `Cc1cc2c(cc1N1Cc3c(cc(Cl)nc3Cl)NC1=O)OC(c1ncccc1F)CC2` (stereo not drawn) [Example 41, 5,7-dichloro-3-(2-(3-fluoropyridin-2-yl)-6-methyl-3,4-dihydro-2H-chromen-7-yl)-3,4-dihydropyrido[4,3-d]pyrimidin-2(1H)-one], the “inhibitory rate (%)” value is reported as 108%.
In the case of `O=C1Nc2cccc(Cl)c2CN1c1cc(OCc2ncccc2F)ccc1Br` [Example 277, 3-(2-bromo-5-((3-fluoropyridin-2-yl)methoxy)phenyl)-5-chloro-3,4-dihydroquinazolin-2(1H)-one], the “inhibitory rate (%)” value is reported as 99%.
